Measurements reported in ChEMBL document CHEMBL1201862, “PubChem BioAssay data set” (2004).
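Briefly, cells in 96-well plates were exposed to five compound concentrations for 48 h, and endpoints were estimated by linear interpolation. GI50 is the concentration that inhibits growth by half.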 Active and inactive are the calls of the source. Rule as the data show it: active = GI50 up to about 1.1 µM and inactive = higher.

Tests used:
Assay in all cases: inhibition of tumour cell growth, NCI panel, 48 h
HOP-62 = test system: HOP-62
SF-539 = test system: SF-539
SK-MEL-28 = test system: SK-MEL-28
NCI/ADR-RES = test system: NCI/ADR-RES
HCT-15 = test system: HCT-15
SF-268 = test system: SF-268
UACC-257 = test system: UACC-257
OVCAR-5 = test system: OVCAR-5
HCT-116 = test system: HCT-116
M14 = test system: M14
MDA-MB-231 = test system: MDA-MB-231
COLO 205 = test system: COLO 205
UACC-62 = test system: UACC-62
UO-31 = test system: UO-31
SW-620 = test system: SW-620
NCI-H226 = test system: NCI-H226
EKVX = test system: EKVX
HT-29 = test system: HT-29
OVCAR-8 = test system: OVCAR-8
RPMI-8226 = test system: RPMI-8226

Compound | GI50 (HOP-62) | GI50 (SF-539) | GI50 (SK-MEL-28) | GI50 (NCI/ADR-RES) | GI50 (HCT-15) | GI50 (SF-268) | GI50 (UACC-257) | GI50 (OVCAR-5) | GI50 (HCT-116) | GI50 (M14) | GI50 (MDA-MB-231) | GI50 (COLO 205) | GI50 (UACC-62) | GI50 (UO-31) | GI50 (SW-620) | GI50 (NCI-H226) | GI50 (EKVX) | GI50 (HT-29) | GI50 (OVCAR-8) | GI50 (RPMI-8226)
Cc1ccc(C(=O)CCC2C(=O)CC(C)(C)CC2=O)cc1 | > 100 µM (inactive) | > 100 µM (inactive) | > 100 µM (inactive) | > 100 µM (inactive) | > 100 µM | > 100 µM (inactive) | > 100 µM (inactive) | > 100 µM (inactive) | > 100 µM (inactive) | > 100 µM (inactive) | > 100 µM (inactive) | > 100 µM (inactive) | > 100 µM (inactive) | > 100 µM (inactive) | > 100 µM (inactive) | > 100 µM (inactive) | > 100 µM (inactive) | > 100 µM (inactive) | > 100 µM (inactive) | 
COc1ccccc1/[N+]([O-])=C/c1ccccc1OC(=S)S |  | 57.1 µM (inactive) | > 100 µM (inactive) | 30.6 µM (inactive) | 23 µM | 33.7 µM (inactive) | 28.1 µM (inactive) | 96.2 µM (inactive) | 42 µM (inactive) | 41.1 µM (inactive) | 30.9 µM (inactive) | 27.4 µM (inactive) | 32.9 µM (inactive) | 31 µM (inactive) | 44.5 µM (inactive) | 28.8 µM (inactive) | 30.4 µM (inactive) | > 100 µM (inactive) | 21.7 µM (inactive) | 21.8 µM (inactive)
O=C(/C=C1/Nc2ccc([N+](=O)[O-])cc2N/C1=C/C(=O)c1ccc(Cl)cc1)c1ccccc1 | 20.8 µM (inactive) | 30.3 µM (inactive) |  | 60.3 µM (inactive) | > 100 µM | 30.4 µM (inactive) | > 100 µM (inactive) | > 100 µM (inactive) | 56.9 µM (inactive) | > 100 µM (inactive) | 35 µM (inactive) | > 100 µM (inactive) | 20.5 µM (inactive) | > 100 µM (inactive) |  | > 100 µM (inactive) | > 100 µM (inactive) | > 100 µM (inactive) | 72.4 µM (inactive) | 
O=C1Nc2ccccc2/C1=N/Nc1nc(-c2cccc([N+](=O)[O-])c2)cs1 | 24.1 µM (inactive) | 24 µM (inactive) | 19.5 µM (inactive) | 15.3 µM (inactive) | 21.8 µM | 19.7 µM (inactive) | 19.3 µM (inactive) | > 100 µM (inactive) | 19.2 µM (inactive) | 34.1 µM (inactive) | 17.7 µM (inactive) | 27.1 µM (inactive) | 26.7 µM (inactive) | 55.3 µM (inactive) | 36.8 µM (inactive) | 19.2 µM (inactive) | 22.5 µM (inactive) | 17.7 µM (inactive) | 15.9 µM (inactive) | 
O=C1Nc2ccccc2/C1=N/NC(=S)Nc1ccc([N+](=O)[O-])cc1 | 4.62 µM (inactive) | 13.8 µM (inactive) | 14.2 µM (inactive) | 3.01 µM (inactive) | 2.33 µM | 13 µM (inactive) | 21.1 µM (inactive) | 22.9 µM (inactive) | 5.71 µM (inactive) | 6.62 µM (inactive) | 0.208 µM (active) | 10.3 µM (inactive) | 8.47 µM (inactive) | 4.81 µM (inactive) | 4.01 µM (inactive) |  | 12.3 µM (inactive) | 18.4 µM (inactive) | 1.77 µM (inactive) | 13.5 µM (inactive)
OCCN(CCO)c1ccc2c(-c3ccccc3)cc(N(CCO)CCO)nc2n1 | > 100 µM (inactive) |  | > 100 µM (inactive) | > 100 µM (inactive) | > 100 µM | > 100 µM (inactive) | > 100 µM (inactive) | > 100 µM (inactive) | > 100 µM (inactive) | > 100 µM (inactive) | > 100 µM (inactive) | > 100 µM (inactive) | > 100 µM (inactive) | > 100 µM (inactive) | > 100 µM (inactive) | > 100 µM (inactive) | > 100 µM (inactive) | > 100 µM (inactive) | > 100 µM (inactive) | > 100 µM (inactive)
CO[C@]12S[C@@H]3CCCC[C@@]31C(C)(C)C(=O)N2c1ccccc1 | 16.7 µM (inactive) | 4.11 µM (inactive) | 75.5 µM (inactive) | 23 µM (inactive) | 29.1 µM | 37.9 µM (inactive) | 33.8 µM (inactive) | > 100 µM (inactive) | 33.2 µM (inactive) | 70 µM (inactive) | 42.2 µM (inactive) | 14.4 µM (inactive) | 49.8 µM (inactive) | 91.4 µM (inactive) | 30.4 µM (inactive) |  | 55.7 µM (inactive) | 47.4 µM (inactive) | 30.1 µM (inactive) | 24.7 µM (inactive)
